From BindingDB's records for doi:10.1021/jm900194w (The Hong Kong Polytechnic University, 2009)
pEC50: −log10 of the molar value.

Assay: Reversal of MRP1-mediated doxorubicin-resistance in human HeLa-T5 cells assessed as reduction of doxorubicin IC50 percent by half

pEC50: 7.03
SMILES: Cc1onc2c1c(=O)n([C@H]1CCC[C@@H](CNC(=O)c3ccccc3)C1)c1cccc(Cl)c21 (racemic) [N-(((1R,3S)-3-(9-chloro-3-methyl-4-oxoisoxazolo[4,3-c]quinolin-5(4H)-yl)cyclohexyl)methyl)benzamide]
